The text below walks through data of US12435087B2, “Modulators of DCN-1 and methods of use thereof” (Cellarity, Inc., priority 2023, dated 2025).

Read-outs that look alike come from different tables or passages of the source.

The test has as its target DCN1 (DCUND1) protein PONY domain (Homo sapiens (Human), UniProt Q96GG9). Put plainly: TR-FRET assay (binding to DCN-1, displacement of FAM-labeled probe). Put shortly:
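Compounds read at 1, 5 and 24 h, 0.1% final DMSO, by TR-FRET between terbium-streptavidin on biotinylated DCN1 PONY domain (E. coli) and a FAM-tagged non-covalent inhibitor probe. Two setups used, 5 nM protein with 20 nM labelled probe, or 0.31 nM protein with 100 nM labelled plus 800 nM unlabelled probe; buffer had TritonX and 200 mM NaCl. % activity relative to high (with probe) and low (without probe) controls.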
For orientation: Time-resolved FRET reads energy transfer from a long-lived donor to a nearby acceptor.

[1] abbreviates: 24 hr after treatment with compound, read-out: TR FRET IC50 24 hr.
The mark [2] stands for this setting: TR FRET IC50 1 hr (nM), 1 hr after treatment with compound.
Where [3] appears, read: read-out: TR FRET IC50 1 hr, 1 hr after treatment with compound.

Sequence of DCN1 (DCUND1) protein PONY domain (Q96GG9 60-248): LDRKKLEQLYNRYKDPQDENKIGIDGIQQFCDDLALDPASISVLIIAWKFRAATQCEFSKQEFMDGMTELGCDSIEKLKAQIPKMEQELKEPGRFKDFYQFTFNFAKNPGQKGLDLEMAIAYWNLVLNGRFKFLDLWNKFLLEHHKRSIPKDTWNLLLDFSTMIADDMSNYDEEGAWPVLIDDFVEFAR

Consider `C=C(CN1CCOCC1)C(=O)NCc1cccc([C@@H]2c3cnn(-c4ccccc4)c3N(CC)C(=O)[C@H]2NC(=O)c2ccn(CC#N)n2)c1` [Compound I-340, 1-(cyanomethyl)-N-((4R,5S)-7-ethyl-4-(3-((2-(morpholinomethyl)acrylamido)methyl)phenyl)-6-oxo-1-phenyl-4,5,6,7-tetrahydro-1H-pyrazolo[3,4-b]pyridin-5-yl)-1H-pyrazole-3-carboxamide], for which the IC50 reads like this: under setting [1], 200 to 1000 nM; under setting [2], 1000 to 3000 nM.

Regarding `C=C(CN1CCN(C2COC2)CC1)C(=O)NCc1cccc([C@H]2c3cnn(-c4ccccc4)c3N(CC)C(=O)[C@@H]2NC(=O)c2cccc(C(F)(F)F)c2)c1` [Compound I-134], the IC50 under setting [1] is 200 to 1000 nM and the IC50 under setting [2] lay in the range of 1000 to 3000 nM.

Take `CCN1C(=O)[C@@H](NC(=O)c2cccc(C(F)(F)F)c2)[C@H](c2cncc(NC(=O)/C=C/CN(C)C)c2)c2cnn(-c3ccccc3)c21` [Compound I-320]: the IC50 is 200 to 1000 nM under setting [1] and 1000 to 3000 nM under setting [2].

As to `CCN1C(=O)[C@@H](NC(=O)c2cccc(C(F)(F)F)c2)[C@H](c2cccc(CN(C)C#N)c2)c2c(C)nn(-c3ccccc3)c21` (racemic) [Compound I-40], the IC50 is, setting by setting: under setting [1], 1000 to 3000 nM; under setting [2], 1000 to 3000 nM.

Take `C=C(F)C(=O)Nc1cccc([C@H]2c3c(C)nn(-c4ccccc4)c3N(CC)C(=O)[C@@H]2NC(=O)c2cccc(C(F)(F)F)c2)c1` (racemic) [Compound I-140, N-((4S,5R)-7-ethyl-4-(3-(2-fluoroacrylamido)phenyl)-3-methyl-6-oxo-1-phenyl-4,5,6,7-tetrahydro-1H-pyrazolo[3,4-b]pyridin-5-yl)-3(trifluoromethyl) benzamide]: the IC50 under setting [1] was more than 3000 nM and the IC50 under setting [2] was more than 3000 nM.

In the case of `C=C(C(=O)NCc1cccc([C@@H]2c3cnn(-c4ccccc4)c3N(CC)C(=O)[C@H]2NC(=O)c2cccc(C(F)(F)F)c2)c1)C(C)N1CCN(C2COC2)CC1` (some centres unmarked) [Compound I-317], the IC50 is not above 200 nM under setting [1] and not above 200 nM under setting [3].

As to `CCN1C(=O)[C@@H](NC(=O)c2nccc(C(F)(F)F)n2)[C@H](c2cccc(NC(=O)/C=C/CN(C)C)n2)c2cnn(-c3ccccc3)c21` (racemic) [Compound I-265], the IC50 is, setting by setting: under setting [1], 200 to 1000 nM; under setting [2], 200 to 1000 nM.

In the case of `C=C(CN1CC2CC1C2)C(=O)NCc1cccc([C@@H]2c3cnn(-c4ccccc4)c3N(CC)C(=O)[C@H]2NC(=O)c2cccc(C(F)(F)F)c2)c1` [Compound I-13], the IC50 was not above 200 nM under setting [1] and not above 200 nM under setting [3].

Consider `C=C(CN1CCOCC1)C(=O)NCc1cccc([C@@H]2c3cnn(-c4ccccc4)c3N(CC)C(=O)[C@H]2NC(=O)c2ccnn2C)c1` [Compound I-266], for which the IC50 was 1000 to 3000 nM under setting [1] and 1000 to 3000 nM under setting [2].

On to `CCN1C(=O)[C@@H](NC(=O)c2nccc(C(F)(F)F)n2)[C@H](c2ccccc2/C=C\C#N)c2cnn(-c3ccccc3)c21` (racemic) [Compound I-260, rac-N-((4R,5S)-4-(2-((Z)-2-cyanovinyl)phenyl)-7-ethyl-6-oxo-1-phenyl-4,5,6,7-tetrahydro-1H-pyrazolo[3,4-b]pyridin-5-yl)-4-(trifluoromethyl)pyrimidine-2-carboxamide], for which the IC50 reads like this: under setting [1], 1000 to 3000 nM; under setting [2], 1000 to 3000 nM.

On to `CCN1C(=O)[C@H](NC(=O)c2cccc(C(F)(F)F)c2)[C@@H](c2cccc(N(C)C(=O)/C=C/C(F)(F)F)c2)c2cnn(-c3ccccc3)c21` (racemic) [Compound I-99], for which the concentration for half-maximal inhibition (IC50) under setting [1] lay in the range of 1000 to 3000 nM and the IC50 under setting [2] lay in the range of 1000 to 3000 nM.

As for `C=C(CN(C)C1COC1)C(=O)N(C)Cc1cccc([C@@H]2c3cnn(-c4ccccc4)c3N(CC)C(=O)[C@H]2NC(=O)c2ccn(C3CC3)n2)c1` [Compound I-239], the IC50 under setting [2] was in the range of 1000 to 3000 nM.

`C/C=C(\CN1CCOCC1)C(=O)NCc1cccc([C@@H]2c3cnn(-c4ccccc4)c3N(CC)C(=O)[C@H]2NC(=O)c2nccc(C(F)(F)F)n2)c1` [Compound I-363]: the IC50 was not above 200 nM under setting [1] and 200 to 1000 nM under setting [2].

As to `C/C=C(\CN1CC2(COC2)C1)C(=O)NCc1cccc([C@@H]2c3cnn(-c4ccccc4)c3N(CC)C(=O)[C@H]2NC(=O)c2nccc(C(F)(F)F)n2)c1` [Compound I-243], the IC50 runs as follows: under setting [1], not above 200 nM; under setting [2], 200 to 1000 nM.

Take `CCN1C(=O)[C@@H](NC(=O)c2nccc(C(F)(F)F)n2)[C@H](c2cccc(NC(=O)C3=CCN(C)C3)n2)c2cnn(-c3ccccc3)c21` (racemic) [Compound I-376, rac-N-((4R,5S)-7-ethyl-4-(6-(1-methyl-2,5-dihydro-1H-pyrrole-3-carboxamido)pyridin-2-yl)-6-oxo-1-phenyl-4,5,6,7-tetrahydro-1H-pyrazolo[3,4-b]pyridin-5-yl)-4-(trifluoromethyl)pyrimidine-2-carboxamide]: the IC50 is not above 200 nM under setting [1] and 200 to 1000 nM under setting [2].

In the case of `CCN1C(=O)[C@@H](NC(=O)c2ccn(C(F)(F)F)n2)[C@H](c2cccc(NC(=O)C3=CCN(C)C3)c2)c2c(C)nn(-c3ccccc3)c21` [Compound I-323], the IC50 under setting [1] was not above 200 nM and the IC50 under setting [2] lay within 200 to 1000 nM.

In the case of `C=C(CN1CCOCC1)C(=O)NCc1cccc([C@H]2c3cnn(-c4ccccc4)c3N(CC)C(=O)[C@@H]2NC(=O)c2nccc(C(F)(F)F)n2)c1` [Compound I-43], the IC50 by setting is: under setting [1], 1000 to 3000 nM; under setting [2], 1000 to 3000 nM.

In the case of `C=C(CN1CC2CC1CO2)C(=O)NCc1cccc([C@H]2c3c(C)nn(-c4ccccc4)c3N(CC)C(=O)[C@@H]2NC(=O)c2cccc(C(F)(F)F)c2)c1` (some centres unmarked) [Compound I-294], the IC50 is, setting by setting: under setting [1], not above 200 nM; under setting [2], 200 to 1000 nM.

For `CCN1C(=O)[C@@H](NC(=O)c2cccc(C(F)(F)F)c2)[C@H](c2ccccc2CNC(=O)C(C)Cl)c2cnn(-c3ccccc3)c21` (mixture of isomers) [Compound I-114], the IC50 is 1000 to 3000 nM under setting [1] and 1000 to 3000 nM under setting [2].

Take `CCN1C(=O)[C@@H](NC(=O)c2cccc(C(F)(F)F)c2)[C@H](c2cccc(CNC(=O)/C=C/CN(C)C)c2)c2cnn(-c3ccccc3)c21` (racemic) [Compound I-53]: the IC50 by setting is: under setting [1], 1000 to 3000 nM; under setting [2], 1000 to 3000 nM.

Regarding `C=C(C(=O)N(C)Cc1cccc([C@@H]2c3cnn(-c4ccccc4)c3N(CC)C(=O)[C@H]2NC(=O)c2ccn(C(F)(F)F)n2)c1)C(C)N(C)C1COC1` (some centres unmarked) [Compound I-313], the IC50 by setting is: under setting [1], not above 200 nM; under setting [2], 1000 to 3000 nM.

As for `C=C(CO)C(=O)NCc1cccc([C@@H]2c3cnn(-c4ccccc4)c3N(CC)C(=O)[C@H]2NC(=O)c2cccc(C(F)(F)F)c2)c1` [Compound I-76], the IC50 under setting [1] lay in the range of 1000 to 3000 nM and the IC50 under setting [2] fell in the range of 1000 to 3000 nM.

Regarding `CCN1C(=O)[C@@H](NC(=O)c2cccc(C(F)(F)F)c2)[C@H](c2cccc(CNC(=O)/C=C/C(=O)OC)c2)c2cnn(-c3ccccc3)c21` (racemic) [Compound I-143], the IC50 runs as follows: under setting [1], 200 to 1000 nM; under setting [2], 1000 to 3000 nM.

On to `CCN1C(=O)[C@@H](NC(=O)c2cccc(C(F)(F)F)c2)[C@H](c2cccc3c2CN(C#N)C3)c2cnn(-c3ccccc3)c21` (racemic) [Compound I-282, rac-N-((4R,5S)-4-(2-cyanoisoindolin-4-yl)-7-ethyl-6-oxo-1-phenyl-4,5,6,7-tetrahydro-1H-pyrazolo[3,4-b]pyridin-5-yl)-3-(trifluoromethyl)benzamide], for which the IC50 is, setting by setting: under setting [1], 1000 to 3000 nM; under setting [2], 1000 to 3000 nM.

In general, IC50 refers to the concentration that gives 50% inhibition.
